Measured values published in US10131652B2, “Pyrimidinyloxy benzene derivatives as herbicides” (E. I. DU PONT DE NEMOURS AND COMPANY, priority 2014, dated 2018).
Where two headings read alike, the source gives them in different places.

Tests used:
Assay in all cases: Test D pre-/postemergence plant response
Type in all cases: in vivo
[1] = system: johnsongrass (Sorghum halepense); conditions: Sorghum halepense; for pest or weed control at 62 g/ha: 62 g ai/ha; for pest or weed control at 125 g/ha: 125 g ai/ha
Text: (§1) Seeds of plant species selected from blackgrass (Alopecurus myosuroides), Italian ryegrass (Lolium multiflorum), winter wheat (Triticum aestivum), galium (catchweed bedstraw, Galium aparine), corn (Zea mays), large (Lg) crabgrass (Digitaria sanguinalis), giant foxtail (Setaria faberii), johnsongrass (Sorghum halepense), lambsquarters (Chenopodium album), morningglory (Ipomoea coccinea), yellow nutsedge (Cyperus esculentus), pigweed (Amaranthus retroflexus), ragweed (common ragweed, Ambrosia elatior), soybean (Glycine max), bamyardgrass (Echinochloa crus-galli), oilseed rape (Brassica napus), waterhemp (common waterhemp, Amaranthus rudis), and velvetleaf (Abutilon theophrasti) were planted into a blend of loam soil and sand and treated preemergence with test chemicals formulated in a non-phytotoxic solvent mixture which included a surfactant. At the same time, plants selected from these crop and weed species and also kochia (Kochia scoparia), wild oat (Avena fatua), and chickweed (common chickweed, Stellaria media) were planted in pots containing Redi-Earth® planting medium (Scotts Company, 14111 Scottslawn Road, Marysville, Ohio 43041) comprising spaghnum peat moss, vermiculite, wetting agent and starter nutrients and treated with postemergence applications of test chemicals formulated in the same manner. Plants ranged in height from 2 to 18 cm (1- to 4-leaf stage) for postemergence treatments. Treated plants and controls were maintained in a greenhouse for 13 to 15 days, after which time all species were compared to controls and visually evaluated. Plant response ratings, summarized in Table D, are based on a scale of 0 to 100 where 0 is no effect and 100 is complete control. A dash (-) response means no test result.

[2] = system: velvetleaf (Abutilon theophrasti); conditions: Abutilon theophrasti; for pest or weed control at 16 g/ha: 16 g ai/ha; for pest or weed control at 31 g/ha: 31 g ai/ha; for pest or weed control at 62 g/ha: 62 g ai/ha; for pest or weed control at 125 g/ha: 125 g ai/ha
Text: as §1

[3] = system: waterhemp (common waterhemp, Amaranthus rudis); conditions: Amaranthus tuberculatus; for pest or weed control at 16 g/ha: 16 g ai/ha; for pest or weed control at 31 g/ha: 31 g ai/ha; for pest or weed control at 62 g/ha: 62 g ai/ha; for pest or weed control at 125 g/ha: 125 g ai/ha
Text: as §1

[4] = system: lambsquarters (Chenopodium album); conditions: Chenopodium album; for pest or weed control at 16 g/ha: 16 g ai/ha; for pest or weed control at 31 g/ha: 31 g ai/ha; for pest or weed control at 62 g/ha: 62 g ai/ha; for pest or weed control at 125 g/ha: 125 g ai/ha
Text: as §1

soybean (Glycine max) = conditions: Glycine max; for plant injury at 16 g/ha: 16 g ai/ha; for plant injury at 31 g/ha: 31 g ai/ha; for plant injury at 62 g/ha: 62 g ai/ha; for plant injury at 125 g/ha: 125 g ai/ha
Text: as §1

[5] = post-emergence, Postemergence, scale 0 to 100, 0 no effect, 100 complete control, read-out: Plant response rating, Johnsongrass
[6] = post-emergence, Postemergence, scale 0 to 100 (0 no effect, 100 complete control), read-out: Velvetleaf plant response rating
[7] = post-emergence, Postemergence, scale 0 to 100, 0 no effect, 100 complete control, read-out: Plant response rating, Velvetleaf
[8] = pre-emergence, Preemergence, scale 0 to 100 (0 no effect, 100 complete control), read-out: Plant response rating, Velvetleaf
[9] = post-emergence, Postemergence, scale 0 to 100 (0 no effect, 100 complete control), read-out: Waterhemp plant response rating
[10] = post-emergence, Postemergence, scale 0 to 100, 0 no effect, 100 complete control, read-out: Plant response rating, Waterhemp
[11] = pre-emergence, Preemergence, scale 0 to 100 (0 no effect, 100 complete control), read-out: Plant response rating, Waterhemp
[12] = post-emergence, Postemergence, scale 0 to 100 (0 no effect, 100 complete control), read-out: Lambsquarters plant response rating
[13] = post-emergence, Postemergence, scale 0 to 100, 0 no effect, 100 complete control, read-out: Plant response rating, Lambsquarters
[14] = pre-emergence, Preemergence, scale 0 to 100 (0 no effect, 100 complete control), read-out: Plant response rating, Lambsquarters
[15] = post-emergence, Postemergence, scale 0 to 100 (0 no effect, 100 complete control), read-out: Soybean plant response rating
[16] = post-emergence, Postemergence, scale 0 to 100, 0 no effect, 100 complete control, read-out: Plant response rating, Soybean
[17] = pre-emergence, Preemergence, scale 0 to 100 (0 no effect, 100 complete control), read-out: Plant response rating, Soybean

With `FC(F)c1cc(-c2ccccc2Oc2ncc(Cl)cn2)on1` [Compound 53, 5-chloro-2-[2-[3-(difluoromethyl)-5-isoxazolyl]phenoxy]pyrimidine] the pest or weed control at 62 g/ha [1, 5] was 5%, the pest or weed control at 125 g/ha [1, 5] was 5% and the pest or weed control at 125 g/ha ([1]; pre-emergence, Preemergence, read-out: Plant response rating (scale 0 to 100), Johnsongrass) was 55%. The pest or weed control at 16 g/ha ([1]; pre-emergence, Preemergence, 16 g ai/ha, scale 0 to 100 (0 no effect, 100 complete control), read-out: Plant response rating, Johnsongrass) was 0%, the pest or weed control at 31 g/ha ([1]; pre-emergence, Preemergence, 31 g ai/ha, scale 0 to 100 (0 no effect, 100 complete control), read-out: Plant response rating, Johnsongrass) was 0% and the pest or weed control at 62 g/ha ([1]; pre-emergence, Preemergence, scale 0 to 100 (0 no effect, 100 complete control), read-out: Plant response rating, Johnsongrass) was 35%. It also gave a pest or weed control at 16 g/ha [2, 6] of 55%, a pest or weed control at 31 g/ha [2, 6] of 60% and a pest or weed control at 62 g/ha [2, 7] of 70%. For the same compound, the pest or weed control at 125 g/ha [2, 7] was 100%, the pest or weed control at 125 g/ha ([2]; pre-emergence, Preemergence, read-out: Plant response rating (scale 0 to 100), Velvetleaf) was 100% and the pest or weed control at 16 g/ha [2, 8] was 100%. It also gave a pest or weed control at 31 g/ha [2, 8] of 100%, a pest or weed control at 62 g/ha [2, 8] of 100% and a pest or weed control at 16 g/ha [3, 9] of 80%. The pest or weed control at 31 g/ha [3, 9] was 90%, the pest or weed control at 62 g/ha [3, 10] was 90% and the pest or weed control at 125 g/ha [3, 10] was 100%. The pest or weed control at 125 g/ha ([3]; pre-emergence, Preemergence, read-out: Plant response rating (scale 0 to 100), Waterhemp) was 100%, the pest or weed control at 16 g/ha [3, 11] was 100% and the pest or weed control at 31 g/ha [3, 11] was 100%. For the same compound, the pest or weed control at 62 g/ha [3, 11] was 100%, the pest or weed control at 16 g/ha [4, 12] was 70% and the pest or weed control at 31 g/ha [4, 12] was 80%. The pest or weed control at 62 g/ha [4, 13] was 100%, the pest or weed control at 125 g/ha [4, 13] was 100% and the pest or weed control at 125 g/ha ([4]; pre-emergence, Preemergence, read-out: Plant response rating (scale 0 to 100), Lambsquarters) was 100%. For the same compound, the pest or weed control at 16 g/ha [4, 14] was 100%, the pest or weed control at 31 g/ha [4, 14] was 100% and the pest or weed control at 62 g/ha [4, 14] was 100%. The plant injury at 16 g/ha (soybean (Glycine max); [15]) was 60%, the plant injury at 31 g/ha (soybean (Glycine max); [15]) was 90% and the plant injury at 62 g/ha (soybean (Glycine max); [16]) was 95%. It also gave a plant injury at 125 g/ha (soybean (Glycine max); [16]) of 98%, a plant injury at 125 g/ha (soybean (Glycine max); pre-emergence, Preemergence, read-out: Plant response rating (scale 0 to 100), Soybean) of 80% and a plant injury at 16 g/ha (soybean (Glycine max); [17]) of 0%. The plant injury at 31 g/ha (soybean (Glycine max); [17]) was 25% and the plant injury at 62 g/ha (soybean (Glycine max); [17]) was 55%.
